Data reported in patent US6225322A, “Compounds useful for inhibition of farnesyl protein transferase” (Schering Corporation, priority 1998, dated 2001).

Experiments:
[1] = target: farnesyl protein transferase (Homo sapiens, UniProt P49354+P49356); test: FPT IC50 (inhibition of farnesyl protein transferase, in vitro enzyme assay); type: biochemical
Procedure: (§1) FPT IC50 (inhibition of farnesyl protein transferase, in vitro enzyme assay) and COS Cell IC50 (Cell-Based Assay) were determined following the assay procedures described in WO 95/10516, published Apr. 20, 1995. GGPT IC50 (inhibition of geranylgeranyl protein transferase, in vitro enzyme assay), Cell Mat Assay, and anti-tumor activity (in vivo anti-tumor studies) could be determined by the assay procedures described in WO 95/10516. The disclosure of WO 95/10516 is incorporated herein by reference thereto.

COS Cell = COS Cell IC50 (Cell-Based Assay)
Procedure: as §1

IC50 [1] | Structure (SMILES) | IC50 (COS Cell)
> 17000 nM | CCOC(=O)N1CCC(C2c3ncccc3CCc3cccnc32)CC1 [Example 6, ethyl 4-(6,11-dihydro-5H-cyclohepta[2,1-b:4,5-b']dipyridin-11-yl)-1-piperidinecarboxylate] | 
> 1400 nM | O=C(Cc1cc[n+]([O-])cc1)N1CCC(C2c3ncccc3CCc3cccnc32)CC1 [Example 8, 4-(6,11-dihydro-5H-cyclohepta[2,1-b: 4,5-b']dipyridin-11-yl)-1-(4-pyridinylacetyl) n1-oxide piperidine] | 
28 nM | O=C(Cc1cc[n+]([O-])cc1)N1CCC(C2c3ncc(Br)cc3CCc3cc(Br)cnc32)CC1 [Example 13, 4-(3,8-dibromo-6,11-dihydro-5H-cyclohepta [2,1-b:4,5-b']dipyridin-11-yl)-1-(4-pyridinylacetyl) n1-oxide piperidine] | 125 nM
160 nM | Cc1cnc2c(c1)CCc1cccnc1C2C1CCN(C(=O)Cc2cc[n+]([O-])cc2)CC1 (stereo not drawn) [Example 18, 4-(3-methyl-6,11-dihydro-5H-cyclohepta [2,1-b:4,5-b']dipyridin-11-yl)-1-(4-pyridinylacetyl) n1-oxide piperidine] | 
290 nM | O=C(Cc1cc[n+]([O-])cc1)N1CCC(C2c3ncccc3CCc3cc(Br)cnc32)CC1 (stereo not drawn) [Example 17, 4-(3-bromo-6,11-dihydro-5H-cyclohepta [2,1-b:4,5-b']dipyridin-11-yl)-1-(4-pyridinylacetyl) n1-oxide piperidine] | 
